The source made the active and inactive calls.
Experiments:
[1] = molecular target: 26S proteasome non-ATPase regulatory subunit 14 (Homo sapiens, UniProt O00487); assay: inhibition of proteasome subunit RPN11 – biochemical, fluorescence polarization, uHTS hits, confirmation (AID 602368); format: functional
[2] = molecular target: 72 kDa type IV collagenase (Homo sapiens, UniProt P08253); assay: Dose Response validation of uHTS RPN11 inhibitor hits using a MMP-2 Fluorescence assay.; format: functional
Prothrombin = Prothrombin (Bos taurus, UniProt P00735); assay: thrombin inhibition, dose response, biochemical, fluorescence polarization, uHTS hits (AID 602369); format: functional
Caspase-3 [3] = molecular target: T1, Caspase-3 (Homo sapiens, UniProt P42574); assay: caspase-3 inhibitors as off-family protease, SAR follow-up, selectivity assay for SENP protease inhibitor project, biochemical, luminescence, set 2 (AID 588599); format: functional
T1 sequence (P42574 whole entry): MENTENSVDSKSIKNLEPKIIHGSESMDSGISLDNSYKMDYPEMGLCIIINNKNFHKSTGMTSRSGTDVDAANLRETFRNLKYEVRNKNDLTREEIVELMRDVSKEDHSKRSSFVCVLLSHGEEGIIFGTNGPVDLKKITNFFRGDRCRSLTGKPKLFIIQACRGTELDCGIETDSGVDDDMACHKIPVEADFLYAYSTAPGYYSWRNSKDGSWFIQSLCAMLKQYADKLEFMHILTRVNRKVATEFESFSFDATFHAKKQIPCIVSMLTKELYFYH

[4] = molecular target: T2, Sentrin-specific protease 8 (Homo sapiens, UniProt Q96LD8); assay: SENP8 protease inhibitors, SAR follow-up, biochemical, luminescence, set 2 (AID 588601); format: functional
T2 sequence (Q96LD8 whole entry): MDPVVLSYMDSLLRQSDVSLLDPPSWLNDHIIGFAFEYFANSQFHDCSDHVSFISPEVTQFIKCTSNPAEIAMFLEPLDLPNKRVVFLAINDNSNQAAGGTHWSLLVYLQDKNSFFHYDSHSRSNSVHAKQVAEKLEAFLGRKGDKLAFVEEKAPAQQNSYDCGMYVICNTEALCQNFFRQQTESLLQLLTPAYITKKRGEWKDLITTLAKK

[5] = molecular target: T3, Sentrin-specific protease 7 (Homo sapiens, UniProt Q9BQF6); assay: SENP7 protease inhibitors, SAR follow-up, biochemical, luminescence, set 2 (AID 588600); format: functional
T3 sequence (Q9BQF6 whole entry): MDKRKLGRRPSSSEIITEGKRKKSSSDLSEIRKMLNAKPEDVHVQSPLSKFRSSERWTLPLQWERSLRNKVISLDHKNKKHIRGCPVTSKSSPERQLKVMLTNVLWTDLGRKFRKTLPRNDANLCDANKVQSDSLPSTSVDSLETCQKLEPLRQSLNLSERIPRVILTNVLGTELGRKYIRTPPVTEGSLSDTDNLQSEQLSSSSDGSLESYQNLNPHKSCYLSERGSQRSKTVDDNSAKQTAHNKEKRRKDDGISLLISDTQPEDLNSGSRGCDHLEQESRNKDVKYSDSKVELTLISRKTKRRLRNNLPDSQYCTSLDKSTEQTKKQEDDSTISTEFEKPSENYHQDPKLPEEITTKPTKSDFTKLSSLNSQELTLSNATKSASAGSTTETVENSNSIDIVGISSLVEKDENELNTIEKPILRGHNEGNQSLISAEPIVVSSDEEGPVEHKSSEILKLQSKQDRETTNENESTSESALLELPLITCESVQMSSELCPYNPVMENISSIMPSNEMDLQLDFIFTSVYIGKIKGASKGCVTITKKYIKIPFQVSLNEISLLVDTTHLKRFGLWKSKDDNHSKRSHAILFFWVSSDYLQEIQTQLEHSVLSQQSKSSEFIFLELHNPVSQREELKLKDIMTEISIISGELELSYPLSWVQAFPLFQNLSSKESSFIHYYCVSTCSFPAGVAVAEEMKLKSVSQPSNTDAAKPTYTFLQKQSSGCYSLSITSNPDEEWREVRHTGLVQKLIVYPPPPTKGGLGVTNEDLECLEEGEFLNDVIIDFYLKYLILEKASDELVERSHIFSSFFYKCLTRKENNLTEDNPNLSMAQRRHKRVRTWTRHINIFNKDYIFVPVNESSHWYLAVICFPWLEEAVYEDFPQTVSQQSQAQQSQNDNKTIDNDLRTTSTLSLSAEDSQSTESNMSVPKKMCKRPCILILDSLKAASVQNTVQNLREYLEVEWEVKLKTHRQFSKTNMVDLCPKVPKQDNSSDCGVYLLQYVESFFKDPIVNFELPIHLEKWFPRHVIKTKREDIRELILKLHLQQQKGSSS

[6] = molecular target: T4, Sentrin-specific protease 6 (Homo sapiens, UniProt Q9GZR1); assay: SENP6 protease inhibitors, SAR follow-up, biochemical, luminescence, set 2 (AID 588598); format: functional
T4 sequence (Q9GZR1 whole entry): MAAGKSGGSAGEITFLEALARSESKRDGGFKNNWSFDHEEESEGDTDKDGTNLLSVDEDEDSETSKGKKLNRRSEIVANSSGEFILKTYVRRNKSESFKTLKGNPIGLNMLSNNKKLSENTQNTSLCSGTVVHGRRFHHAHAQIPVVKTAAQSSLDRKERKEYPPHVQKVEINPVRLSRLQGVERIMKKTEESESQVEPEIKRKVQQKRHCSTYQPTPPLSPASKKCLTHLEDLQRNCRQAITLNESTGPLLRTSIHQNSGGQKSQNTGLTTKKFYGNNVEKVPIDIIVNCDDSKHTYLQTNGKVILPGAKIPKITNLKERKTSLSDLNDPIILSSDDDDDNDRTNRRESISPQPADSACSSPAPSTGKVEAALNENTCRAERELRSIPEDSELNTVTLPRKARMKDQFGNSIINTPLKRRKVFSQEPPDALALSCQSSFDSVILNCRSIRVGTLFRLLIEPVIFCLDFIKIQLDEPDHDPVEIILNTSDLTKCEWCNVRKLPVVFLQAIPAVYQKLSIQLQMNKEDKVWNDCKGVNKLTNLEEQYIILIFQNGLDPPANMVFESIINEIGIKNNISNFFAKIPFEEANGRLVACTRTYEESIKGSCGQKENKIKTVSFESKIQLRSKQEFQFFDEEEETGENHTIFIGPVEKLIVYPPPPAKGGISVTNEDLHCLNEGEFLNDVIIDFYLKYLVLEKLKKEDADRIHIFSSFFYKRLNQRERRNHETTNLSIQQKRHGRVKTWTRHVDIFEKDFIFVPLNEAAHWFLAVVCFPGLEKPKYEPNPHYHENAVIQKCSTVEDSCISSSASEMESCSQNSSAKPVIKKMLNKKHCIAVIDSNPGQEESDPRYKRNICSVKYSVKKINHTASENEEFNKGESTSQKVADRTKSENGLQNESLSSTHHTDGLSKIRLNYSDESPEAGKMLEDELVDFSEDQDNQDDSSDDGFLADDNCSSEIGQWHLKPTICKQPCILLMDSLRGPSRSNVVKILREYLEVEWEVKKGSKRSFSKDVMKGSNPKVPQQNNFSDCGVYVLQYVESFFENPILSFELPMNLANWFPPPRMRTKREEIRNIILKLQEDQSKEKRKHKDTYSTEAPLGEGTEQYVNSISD

[7] = molecular target: Death-associated protein kinase 3 (Homo sapiens, UniProt O43293); format: functional;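 further: measured as one member of a kinome-wide profiling panel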
LIM domain kinase 1 = LIM domain kinase 1 (Homo sapiens, UniProt P53667); assay: Navigating the Kinome. Panel member name: LIMK1; format: functional
[8] = molecular target: Serine/threonine-protein kinase Chk1 (Homo sapiens, UniProt O14757); format: functional;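 further: measured as one member of a kinome-wide kinase profiling panel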
[9] = molecular target: G protein-coupled receptor kinase 5 (Homo sapiens, UniProt P34947); assay: Navigating the Kinome. Panel member name: GPRK5; format: functional
HEK293 = assay: inhibitors of LMP1-driven NF-kB reporter, dose response, cell-based, HEK293, luciferase, cherry-pick (AID 588343); format: functional; details: Homo sapiens
[10] = molecular target: Latent membrane protein 1 (Human herpesvirus 4 (strain B95-8), UniProt P03230); assay: TES1-eGFP NF-kB reporter inhibition versus Tet-On dsRED, dose response, selectivity assay for LMP1 NF-kB inhibitor project, imaging, HEK293T, dual-color eGFP/dsRED, cherry-picks (AID 588398); format: functional, cell-based
[11] = molecular target: T5, Oxysterols receptor LXR-beta (Homo sapiens, UniProt P55055); format: functional, cell-based;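 further: agonist activity at LXR measured by a cell-based luminescence readout across a dose range, run as a counterscreen for daf-12 agonists; HEK293 cells with Gal4-LXR fusion and GAL4-driven luciferase reporter; potency for activation of Gal4-LXR reporter so compounds are agonists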
T5 sequence (P55055 whole entry): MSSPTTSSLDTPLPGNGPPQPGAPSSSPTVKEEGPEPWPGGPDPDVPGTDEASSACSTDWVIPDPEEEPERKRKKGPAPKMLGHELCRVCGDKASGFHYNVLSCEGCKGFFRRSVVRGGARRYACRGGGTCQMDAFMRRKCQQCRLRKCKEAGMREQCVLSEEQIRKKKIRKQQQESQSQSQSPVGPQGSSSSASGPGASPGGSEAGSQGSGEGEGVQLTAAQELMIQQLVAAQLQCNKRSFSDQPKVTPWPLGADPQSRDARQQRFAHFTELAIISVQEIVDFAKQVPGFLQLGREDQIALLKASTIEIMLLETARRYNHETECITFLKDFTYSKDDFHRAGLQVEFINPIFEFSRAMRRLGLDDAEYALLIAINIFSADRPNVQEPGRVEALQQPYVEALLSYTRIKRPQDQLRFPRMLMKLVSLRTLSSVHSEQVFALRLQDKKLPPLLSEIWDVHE

[12] = molecular target: T2, Sentrin-specific protease 8; assay: SENP8 protease inhibitors, SAR follow-up, biochemical, luminescence (AID 504501); format: functional
Caspase-3 [13] = molecular target: T1, Caspase-3; assay: SAR Analysis of small molecule inhibitors of Sentrin-specific proteases (SENPs) using a Caspase-3 Selectivity assay. [Related pubchem assays (depositor defined):AID2540, AID2599, AID434973, AID489001]; format: functional
[14] = molecular target: T4, Sentrin-specific protease 6; assay: SAR Analysis of small molecule inhibitors of Sentrin-specific protease 6 (SENP6) using a Luminescent assay. [Related pubchem assays (depositor defined):AID2582, AID2599]; format: functional
[15] = molecular target: T3, Sentrin-specific protease 7; assay: SENP7 protease inhibitors, SAR follow-up, biochemical, luminescence (AID 504497); format: functional
Beta Lactamase [16] = molecular target: T6, Beta Lactamase (Pseudomonas aeruginosa, UniProt Q932Y6);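 further: confirmatory high-throughput screen measuring VIM-2 metallo-beta-lactamase inhibition by epi-absorbance in dose response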
Beta-lactamase [17] = molecular target: Beta-lactamase (Pseudomonas aeruginosa, UniProt Q79MP6);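 further: biochemical dose-response test of metallo-beta-lactamase enzyme inhibition, read out by epi-absorbance; purified recombinant IMP-1 metallo-beta-lactamase with nitrocefin as substrate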
Beta-lactamase [18] = molecular target: Beta-lactamase (Salmonella choleraesuis (strain SC-B67), UniProt Q5J463)
CHO = assay: cytotoxicity in TLR9-MyD88 CHO cells, dose response, cytotoxicity control for TLR9-MyD88 binding inhibitor project, cell-based, luminescence (AID 588339); format: functional, hamster; details: Cricetulus griseus;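 further: CHO cells stably coexpressing TLR9 and MyD88 fusions from primary screen; compound exposure lasted 48 hours before viability readout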
Beta Lactamase [19] = molecular target: T6, Beta Lactamase; assay: beta-lactamase reporter inhibitor potency, dose response, artefact control for TLR9-MyD88 binding inhibitor project, BLA reporter cells, FRET fluorescence (AID 588341); format: cell-based;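 further: cell based assay in CHO-K1 cells stably expressing beta-lactamase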
[20] = molecular target: Sphingosine 1-phosphate receptor 2 (Homo sapiens, UniProt O95136); assay: Late-stage fluorescence-based dose-response cell-based counterscreen assay to identify agonists of the Sphingosine 1-Phosphate Receptor 3 (S1P3): Sphingosine 1-Phosphate Receptor 2 (S1P2) agonist assay.; format: functional
[21] = molecular target: T7, Sphingosine 1-phosphate receptor 4 (Homo sapiens, UniProt O95977); assay: Late-stage fluorescence-based dose-response cell-based counterscreen assay to identify agonists of the Sphingosine 1-Phosphate Receptor 3 (S1P3): Sphingosine 1-Phosphate Receptor 4 (S1P4) agonist assay.; format: functional
T7 sequence (O95977 whole entry): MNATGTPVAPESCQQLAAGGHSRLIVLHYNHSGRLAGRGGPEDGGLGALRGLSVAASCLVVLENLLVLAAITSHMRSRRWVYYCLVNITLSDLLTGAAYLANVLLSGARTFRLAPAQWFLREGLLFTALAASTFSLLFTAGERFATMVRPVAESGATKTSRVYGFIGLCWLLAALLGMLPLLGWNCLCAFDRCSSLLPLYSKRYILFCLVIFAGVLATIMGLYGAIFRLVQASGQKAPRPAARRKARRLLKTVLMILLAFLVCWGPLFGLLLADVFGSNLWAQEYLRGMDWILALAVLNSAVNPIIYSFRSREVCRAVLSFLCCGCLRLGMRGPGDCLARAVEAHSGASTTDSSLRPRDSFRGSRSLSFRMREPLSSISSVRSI

[22] = Vero cell cytotoxicity, cytotoxicity control for M. tuberculosis inhibitor project, purified and synthesized samples, set 8 (AID 602431); format: functional; details: Mycobacterium tuberculosis
[23] = THP-1 cell cytotoxicity, cytotoxicity control, set 6 (AID 602433); format: functional; details: Mycobacterium tuberculosis

T6 sequence (Q932Y6 whole entry): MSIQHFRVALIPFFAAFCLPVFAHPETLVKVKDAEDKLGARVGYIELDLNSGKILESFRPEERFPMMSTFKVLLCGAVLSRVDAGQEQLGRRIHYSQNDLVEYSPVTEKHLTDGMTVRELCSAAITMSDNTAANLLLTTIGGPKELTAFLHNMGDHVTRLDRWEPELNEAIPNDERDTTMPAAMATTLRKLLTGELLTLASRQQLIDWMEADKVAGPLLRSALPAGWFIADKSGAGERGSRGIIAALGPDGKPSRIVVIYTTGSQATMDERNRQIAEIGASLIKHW
Chain of Latent membrane protein 1 (P03230 whole entry, the tested form may be a part): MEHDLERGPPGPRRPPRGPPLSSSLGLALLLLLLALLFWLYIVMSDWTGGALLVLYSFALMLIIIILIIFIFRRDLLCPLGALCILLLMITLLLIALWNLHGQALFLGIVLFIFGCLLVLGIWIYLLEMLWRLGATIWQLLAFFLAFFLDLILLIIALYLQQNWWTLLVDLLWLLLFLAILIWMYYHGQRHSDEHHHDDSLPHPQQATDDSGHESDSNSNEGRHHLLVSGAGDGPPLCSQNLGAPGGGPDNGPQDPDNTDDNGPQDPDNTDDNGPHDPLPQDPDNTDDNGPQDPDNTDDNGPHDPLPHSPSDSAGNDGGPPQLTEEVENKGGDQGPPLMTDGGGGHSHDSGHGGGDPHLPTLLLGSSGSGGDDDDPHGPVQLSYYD
Chain of Sphingosine 1-phosphate receptor 2 (O95136 whole entry): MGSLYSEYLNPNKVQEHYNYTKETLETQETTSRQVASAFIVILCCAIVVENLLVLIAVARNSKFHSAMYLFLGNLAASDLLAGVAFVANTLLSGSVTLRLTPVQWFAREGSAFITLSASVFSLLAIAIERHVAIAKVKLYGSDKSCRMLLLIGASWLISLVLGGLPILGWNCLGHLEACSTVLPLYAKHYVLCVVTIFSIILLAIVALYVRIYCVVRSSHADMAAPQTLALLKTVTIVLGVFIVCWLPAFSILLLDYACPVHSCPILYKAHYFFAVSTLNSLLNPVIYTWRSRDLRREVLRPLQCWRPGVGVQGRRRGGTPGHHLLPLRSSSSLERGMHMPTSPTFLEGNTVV
Chain of Serine/threonine-protein kinase Chk1 (O14757 whole entry): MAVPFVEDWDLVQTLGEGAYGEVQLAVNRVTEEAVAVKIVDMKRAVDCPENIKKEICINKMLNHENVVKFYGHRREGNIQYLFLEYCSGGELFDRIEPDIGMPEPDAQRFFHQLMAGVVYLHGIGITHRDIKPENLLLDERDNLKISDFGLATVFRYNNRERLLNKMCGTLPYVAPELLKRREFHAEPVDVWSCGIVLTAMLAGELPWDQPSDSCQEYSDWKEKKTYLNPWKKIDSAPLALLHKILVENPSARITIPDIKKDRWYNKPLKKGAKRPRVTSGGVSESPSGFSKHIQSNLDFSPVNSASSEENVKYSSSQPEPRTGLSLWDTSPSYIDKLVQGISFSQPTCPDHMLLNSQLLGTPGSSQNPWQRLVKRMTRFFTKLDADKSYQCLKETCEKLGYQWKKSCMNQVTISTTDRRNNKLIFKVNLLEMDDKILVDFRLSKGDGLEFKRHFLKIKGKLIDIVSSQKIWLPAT
Chain of Death-associated protein kinase 3 (O43293 whole entry, the tested form may be a part): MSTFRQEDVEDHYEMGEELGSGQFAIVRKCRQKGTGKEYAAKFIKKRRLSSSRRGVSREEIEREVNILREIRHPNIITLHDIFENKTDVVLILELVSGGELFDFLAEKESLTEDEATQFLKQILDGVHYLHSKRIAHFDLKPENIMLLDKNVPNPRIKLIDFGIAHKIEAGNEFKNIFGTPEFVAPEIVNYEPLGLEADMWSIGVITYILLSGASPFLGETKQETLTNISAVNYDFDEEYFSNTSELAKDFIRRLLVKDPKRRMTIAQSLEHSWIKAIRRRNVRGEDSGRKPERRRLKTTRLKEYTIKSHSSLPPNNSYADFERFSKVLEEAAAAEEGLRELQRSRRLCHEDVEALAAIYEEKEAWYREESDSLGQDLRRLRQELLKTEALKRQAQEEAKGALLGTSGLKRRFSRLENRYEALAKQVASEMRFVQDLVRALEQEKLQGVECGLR
Chain of G protein-coupled receptor kinase 5 (P34947 whole entry): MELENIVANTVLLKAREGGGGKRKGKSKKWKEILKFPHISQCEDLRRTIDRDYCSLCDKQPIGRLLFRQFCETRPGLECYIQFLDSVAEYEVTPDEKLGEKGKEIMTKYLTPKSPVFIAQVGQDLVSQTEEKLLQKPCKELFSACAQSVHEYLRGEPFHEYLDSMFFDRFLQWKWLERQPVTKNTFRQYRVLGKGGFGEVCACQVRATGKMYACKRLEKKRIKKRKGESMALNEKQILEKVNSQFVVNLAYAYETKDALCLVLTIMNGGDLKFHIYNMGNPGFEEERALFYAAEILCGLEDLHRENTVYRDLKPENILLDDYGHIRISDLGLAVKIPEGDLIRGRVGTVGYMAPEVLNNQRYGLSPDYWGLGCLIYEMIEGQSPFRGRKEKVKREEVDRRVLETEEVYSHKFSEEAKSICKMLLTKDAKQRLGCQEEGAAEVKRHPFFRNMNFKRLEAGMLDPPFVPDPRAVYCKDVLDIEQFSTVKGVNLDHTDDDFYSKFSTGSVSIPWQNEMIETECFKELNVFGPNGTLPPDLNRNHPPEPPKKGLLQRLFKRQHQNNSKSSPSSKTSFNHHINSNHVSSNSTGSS
Chain of 72 kDa type IV collagenase (P08253 whole entry): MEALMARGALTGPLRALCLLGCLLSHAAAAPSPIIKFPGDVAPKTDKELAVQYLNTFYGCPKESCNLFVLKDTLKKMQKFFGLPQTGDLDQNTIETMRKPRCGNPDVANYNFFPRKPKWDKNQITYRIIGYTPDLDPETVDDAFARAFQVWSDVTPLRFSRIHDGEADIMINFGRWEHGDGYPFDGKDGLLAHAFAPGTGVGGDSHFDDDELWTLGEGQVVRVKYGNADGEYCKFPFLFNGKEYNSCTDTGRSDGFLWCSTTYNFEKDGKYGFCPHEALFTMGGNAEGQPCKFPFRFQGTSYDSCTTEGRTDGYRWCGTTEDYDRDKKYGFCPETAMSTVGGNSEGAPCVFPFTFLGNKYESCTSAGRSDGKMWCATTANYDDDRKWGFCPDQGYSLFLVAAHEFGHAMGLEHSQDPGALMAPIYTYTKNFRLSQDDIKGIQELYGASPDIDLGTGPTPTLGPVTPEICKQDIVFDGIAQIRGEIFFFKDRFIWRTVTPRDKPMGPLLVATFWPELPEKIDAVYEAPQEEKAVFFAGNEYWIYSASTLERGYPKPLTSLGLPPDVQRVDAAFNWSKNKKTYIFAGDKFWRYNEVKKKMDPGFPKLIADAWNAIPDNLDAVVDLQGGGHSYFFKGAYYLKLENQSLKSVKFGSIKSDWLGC
Chain of 26S proteasome non-ATPase regulatory subunit 14 (O00487 whole entry): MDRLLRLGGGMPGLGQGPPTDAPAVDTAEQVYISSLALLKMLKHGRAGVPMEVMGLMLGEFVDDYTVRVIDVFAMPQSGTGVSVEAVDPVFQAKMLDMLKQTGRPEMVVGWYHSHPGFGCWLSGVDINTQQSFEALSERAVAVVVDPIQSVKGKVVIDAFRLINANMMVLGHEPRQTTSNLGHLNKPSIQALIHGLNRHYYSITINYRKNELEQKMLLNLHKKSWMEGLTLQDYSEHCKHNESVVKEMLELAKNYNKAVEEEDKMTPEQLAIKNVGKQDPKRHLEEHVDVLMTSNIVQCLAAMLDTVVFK
Chain of LIM domain kinase 1 (P53667 whole entry, the tested form may be a part): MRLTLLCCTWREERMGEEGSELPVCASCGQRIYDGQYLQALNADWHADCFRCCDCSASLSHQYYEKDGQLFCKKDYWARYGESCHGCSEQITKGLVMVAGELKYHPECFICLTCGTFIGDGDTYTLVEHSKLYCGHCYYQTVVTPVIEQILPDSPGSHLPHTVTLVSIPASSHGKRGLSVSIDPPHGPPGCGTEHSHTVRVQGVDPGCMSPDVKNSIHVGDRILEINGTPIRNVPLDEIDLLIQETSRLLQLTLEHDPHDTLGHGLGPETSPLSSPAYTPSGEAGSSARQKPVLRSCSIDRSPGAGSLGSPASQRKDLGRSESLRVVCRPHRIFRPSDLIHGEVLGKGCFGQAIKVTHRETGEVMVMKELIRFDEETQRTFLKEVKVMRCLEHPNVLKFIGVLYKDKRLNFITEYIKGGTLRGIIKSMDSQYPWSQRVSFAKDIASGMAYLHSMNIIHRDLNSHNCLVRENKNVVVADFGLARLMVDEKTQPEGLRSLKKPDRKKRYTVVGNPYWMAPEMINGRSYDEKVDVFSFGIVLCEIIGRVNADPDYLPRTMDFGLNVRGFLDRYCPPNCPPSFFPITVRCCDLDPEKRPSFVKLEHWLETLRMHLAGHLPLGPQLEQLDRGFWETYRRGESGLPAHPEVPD
Chain of Beta-lactamase (Salmonella choleraesuis (strain SC-B67), UniProt Q5J463) (Q5J463 whole entry, the tested form may be a part): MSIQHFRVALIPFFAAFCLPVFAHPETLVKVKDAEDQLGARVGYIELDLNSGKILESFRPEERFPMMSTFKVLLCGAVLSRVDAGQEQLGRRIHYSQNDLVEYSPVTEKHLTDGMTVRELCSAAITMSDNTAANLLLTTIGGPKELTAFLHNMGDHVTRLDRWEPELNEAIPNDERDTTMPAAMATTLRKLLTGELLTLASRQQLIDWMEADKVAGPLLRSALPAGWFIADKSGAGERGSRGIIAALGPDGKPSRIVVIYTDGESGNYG
Chain of Beta-lactamase (Pseudomonas aeruginosa, UniProt Q79MP6) (Q79MP6 whole entry): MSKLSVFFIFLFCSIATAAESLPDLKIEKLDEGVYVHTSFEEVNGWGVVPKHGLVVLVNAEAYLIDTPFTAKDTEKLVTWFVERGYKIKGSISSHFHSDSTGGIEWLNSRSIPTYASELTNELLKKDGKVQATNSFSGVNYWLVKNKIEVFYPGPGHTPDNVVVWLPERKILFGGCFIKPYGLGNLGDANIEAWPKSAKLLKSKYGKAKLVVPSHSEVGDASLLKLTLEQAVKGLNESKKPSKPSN

In the case of `O=C(N/N=C/c1ccncc1)c1cccc(NC(=O)c2ccc(Cl)cc2)c1`, the IC50 [1] is reported as 30.4 µM (active), the IC50 [2] is reported as > 100 µM (inactive) and the IC50 (Prothrombin) is reported as > 100 µM (inactive).

In the case of `Cc1[nH]c2ccccc2c1/C=N/NC(=O)Cc1nnc(N)s1`, the IC50 (Caspase-3 [3]) is reported as > 99 µM (inactive), the IC50 [4] is reported as > 99 µM (inactive) and the IC50 [5] is reported as > 99 µM (inactive). For the same compound, the IC50 [6] was > 99 µM (inactive).

With `Cc1nn(C)c(C)c2cc([N+](=O)[O-])cc1-2` the Ki [7] was 3.98 µM (active), the Ki (LIM domain kinase 1) was 2 µM (active) and the Ki [8] was 1.58 µM (active). The Ki [9] was 3.98 µM (active).

For `CCc1sc(C(=O)Nc2ncccc2O)cc1C`, the AC50 (HEK293) was 3.71 µM (active), the AC50 [10] was 29.7 µM (active) and the EC50 [11] was > 67.5 µM (inactive).

In the case of `O=C(Nc1nc2ccc(Cl)cc2s1)c1ccsc1`, the IC50 [12] is reported as 0.83 µM (active), the IC50 (Caspase-3 [13]) is reported as 2.3 µM (active) and the IC50 [14] is reported as 0.83 µM (active). The IC50 [15] was 1.1 µM (active).

With `O=C(O)c1ccccc1-c1ccc(/C=C/c2cc(C(F)(F)F)nc(O)n2)o1` the IC50 (Beta Lactamase [16]) was 25 µM (inactive), the IC50 (Beta-lactamase [17]) was 30.2 µM (inactive) and the IC50 (Beta-lactamase [18]) was 6.74 µM (active). The IC50 (CHO) was > 49.8 µM (inactive) and the IC50 (Beta Lactamase [19]) was 7 µM (active).

In the case of `O=C(c1cc(-c2ccccc2)on1)N(C1CCCCC1)C1CCCCC1`, the EC50 [20] is reported as > 50 µM (inactive) and the EC50 [21] is reported as > 50 µM (inactive).

In the case of `O=C(CSc1nc2c(c(=O)[nH]1)CN(Cc1ccccc1)CC2)NC1CCCCC1`, the CC50 [22] is reported as > 100 µM (inconclusive) and the CC50 [23] is reported as > 100 µM (inconclusive).

Source: ChEMBL document CHEMBL1201862, “PubChem BioAssay data set” (2004)
